Where no end group is shown, it is not given here.

The record followed here is patent US20240117402A1, “METHODS FOR (POLY) PEPTIDE TANDEM LIGATION AND CYCLIZATION” (Nanyang Technological University, priority 2021, published 2024).

For series [1], the system named is VyPAL2. As to the kind of experiment: VyPAL2-mediated intermolecular peptide ligation kinetics (HPLC). Type of series: biochemical, Viola yedoensis. Particulars: for Km / kcat: VyPAL2, limiting substrate 50-800 μM; for Km: partner peptide constant; for kcat: partner peptide constant (1 with 2 at 1 mM; 5 with 4 at 1.5 mM; 7 with 2 at 1.5 mM); for catalytic activity/efficiency of VyPAL2 relative to butelase-1 towards the substrate: intermolecular ligation. The method, then: (§1) FIG. 3. Kinetic studies on VyPAL2- and butelase 1-catalyzed intermolecular ligations. A) Peptide 1 (SEQ ID NO:7) containing the C-terminal NHV sequence was used at varying concentrations (50 — 800 μM) to react with peptide 2 (SEQ ID NO:8) at constant concentration (1 mM); B) Peptide 4 (SEQ ID NO:9) at a constant concentration (1.5 mM) was reacted with the GF-peptide 5 (SEQ ID NO:10) at varying concentrations (50-800 μM). C) Peptide 2 at a constant concentration (1.5 mM) was reacted with the -NGF peptide 7 (SEQ ID NO:11) at varying concentrations (50-800 μM). The ligation product 3 or 6 was confirmed by ESI-MS. The reaction rates were calculated from the consumption of the limiting substrate 1, 5 or 7. Initial rate (V0) at different concentrations of the limiting substrate were used for Michaelis-Menten curve plotting. For each kinetic calculation, a lineweaver-Burk plot was also used to confirm the analysis.
Sequence of VyPAL2 (as listed by the source): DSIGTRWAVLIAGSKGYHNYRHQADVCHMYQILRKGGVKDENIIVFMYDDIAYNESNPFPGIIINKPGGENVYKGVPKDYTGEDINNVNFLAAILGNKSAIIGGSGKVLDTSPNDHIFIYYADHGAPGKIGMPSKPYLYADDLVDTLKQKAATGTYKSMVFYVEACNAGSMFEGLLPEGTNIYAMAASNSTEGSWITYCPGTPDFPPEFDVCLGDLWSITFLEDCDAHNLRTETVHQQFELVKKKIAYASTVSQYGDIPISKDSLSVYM
(§2) PAL enzymes have been used extensively for protein single-site labeling and macrocyclization. However, using two PALs of different substrate specificity for bio-orthogonal and dual ligation remains unexplored. […] To determine the differences quantitatively, firstly the kinetics of VyPAL2 and butelase-1 toward peptide 1 or 7 which has a C-terminal NHV or NGF tripeptide motif respectively were studied (Table 1). The nucleophile substrate, used at a constant concentration, was peptide 2 which contains an N-terminal GI dipeptide motif. Reverse-phase analytical HPLC was used to monitor and quantify the ligation reaction. […] Similarly, kinetics of the two ligases towards a GF-starting nucleophile substrate, peptide 5, were also examined.
(§3) In this case, the acyl substrate, now kept at a constant concentration for the kinetic study, was peptide 4 which contains NGL at the C-terminus, a favorable motif for both VyPAL2 and butelase-1. It was shown that VyPAL2 has 5-fold catalytic efficiency than butelase-1 towards the GF-peptide substrate 5 (Table 1 and FIG. 3). In summary, the kinetic studies confirm the differential activities of butelase-1 and VyPAL2 toward certain substrate sequences, which provide strong support for a two-PAL, bio-orthogonal tandem ligation scheme for protein dual labeling.

Series [2] concerns butelase-1. Nature of the series: Butelase-1-mediated intermolecular peptide ligation kinetics (HPLC). Particulars: for Km / kcat: Butelase-1, limiting substrate 50-800 μM, partner peptide constant. Type of series: biochemical. How it is done: as §1, §2, §3
For series [3], the system named is butelase-1. As to the kind of experiment: Butelase-1-catalyzed peptide cyclization (substrate screen, pH scan, kinetics). Type of series: biochemical. The note with it: for substrate preference among P1-Asp peptides: 25 nM butelase-1, 5 μM peptide, pH 4.5, 25° C., 60 min. How it is done: (§4) FIG. 9. Screening of P1′-Asp peptides for cyclization by A) VyPAL2, B) butelase-1 and C) OaAEP1b. Quantitative summary of reaction yields of the reaction mixtures. For each reaction, 25 nM of the enzyme and 5 μM of the peptide substrate (21a-21i) were mixed and reacted at pH 4.5, 25° C. for 60 min. The positive control peptide 21j was performed at the same conditions except at pH 7.4. Average yields and SDs were calculated from experiments performed in triplicate. The amino acid sequence of the peptides used are set forth in SEQ ID Nos. 15-24.
(§5) FIG. 10. Ligation activity of three different ligases under different pH and substrate. Cyclization activity of A) VyPAL2, B) Butelase-1 or C) OaAEP1b towards substrate 21e-DSL and 21j-NGL; Fold difference was calculated using the cyclization rate of 21j-NGL divided by that of 21e-DSL. All the results were the average reaction rate at different pH in triplicate experiments based on MALDI-TOF analysis. Light grey text in the “Fold difference” axis marks to the maximum fold difference.
(§6) FIG. 11. Enzymatic activity of three different ligases on the cyclization reaction of P1-Asp peptide 21e-DSL or 21a-DGL and P1-Asn-peptide 21j-NGL. A) Scheme of PAL-mediated P1-Asp peptide cyclization; B) Enzymatic kinetics of VyPAL2 in cyclizing 21e-DSL at pH 4.5; C) Enzymatic kinetics of VyPAL2 in cyclizing 21e-DSL at pH 7.0; D) Enzymatic kinetics of OaAEP1b in cyclizing 21a-DGL at pH 5.5; E) Enzymatic kinetics of Butelase-1 in cyclizing 21e-DSL at pH 4.5. F) Scheme of PAL-mediated cyclization of peptide 21j-NGL; G). Enzymatic kinetics of butelase-1 in cyclizing […] at pH 4.5; H)
(§7) Enzymatic kinetics of VyPAL2 in cyclizing 21j-NSL at pH 4.5; I) Enzymatic kinetics of butelase-1 in cyclizing 21j-NSL at pH 7.4; J) Enzymatic kinetics of OaAEP1b in cyclizing 21j-NSL at pH 7.0. Sequences of peptides used are set forth in SEQ ID Nos. 15, 19, 24.
(§8) PALs recognize a tripeptide motif Asx-P1′-P2′ in the acyl donor substrate for their catalyzed ligation reactions. Because the formation of the acyl-enzyme thioester intermediate is the rate-limiting step, the leaving group P1′-P2′ also plays an important role in determining the catalytic kinetics of a particular 40 PAL-mediated reaction. Previous studies have determined Leu as a preferred P2′ residue. To identify the most favorable P1′ residues for PAL-catalyzed Asp-ligation, a panel of peptides (peptide 21a-21j) with C-terminal DXL and N-terminal GI motifs was synthesized and cyclization reactions performed. Peptide 21j with a C-terminal NGL, a P1-Asn peptide favored by VyPAL2, was used for comparison with the P1-Asp peptides 21a-21i. […] Meanwhile, the P1′ substrate specificities of the two other ligases - Butelase-1 and OaAEP1b - were also evaluated by using the same substrates 21a-21j.
A pH scan experiment with the other two ligases: butelase-1 and OaAEP1 b, for their cyclase activity on 21e and 21j was also conducted. […] In fact, the difference in reaction efficiency between 21j and 21e was about 950 times at pH 7.4 (FIG. 10). […] This makes VyPAL2 a more efficient ligase than butelase-1 for Asp-mediated protein modification.

Series [4] has as its system VyPAL2. Nature of the series: VyPAL2-catalyzed peptide cyclization (substrate screen, pH scan, kinetics). Type of series: biochemical, Viola yedoensis. How it is done: as §4, §5, §6, §7, §8
scanning experiment using the two peptides 21e and 21j was performed. Cyclization reactions were conducted by mixing 5 μM of peptide 21e or 50 μM of 21j with 25 nM of VyPAL2 over a pH range of 4.0 to 7.4. Results confirmed that the optimum pH for the cyclization of the P1-Asn peptide 21j was 6.5-7.4. But for the P1-Asp peptide 21e (which has the C-terminal DSL tripeptide), the optimum pH was 4.0-4.5.
It is worth noting that, at pH 7.4, VyPAL2 processed peptide 21j for cyclization at a rate that is >1000 folds faster than processing peptide 21e (FIG. 10). This enormous difference of reactivity essentially established the orthogonality for ligation at Asn in the presence of aspartyl bonds.

Series [5] deals with T1, Peptide 1 (SEQ ID NO:7), Ac-KKLAVINHV
T1 chain: KKLAVINHV

For series [6], the target named is T2, Peptide 7 (SEQ ID NO:11), Ac-KKLAVINGF
T2 chain: KKLAVINGF

Series [7] addresses T3, Peptide 21e (SEQ ID NO:19), GISTKSIPPISYRDSL
T3 chain: GISTKSIPPISYRDSL

Series [8] addresses T4, Peptide 21j (SEQ ID NO:24), GISTKSIPPISYRNGL
T4 chain: GISTKSIPPISYRNGL

Series [9] concerns the target T5, Peptide 5 (SEQ ID NO:10), GFGGIKA.
T5 chain: GFGGIKA

The mark [10] stands for this setting: Butelase-1, cyclization, pH 4.5.

Turning to “Ac-KKLAVINHV (Ac-KKLAVINHV-NH2) [Peptide 1]”, in the series with VyPAL2 [1], the Km (commonly the substrate concentration at which the rate is half of its maximum) came to 182 ± 6 µM and the kcat is recorded as 0.17 ± 0.01 S^−1. Moreover, in the series on butelase-1 [2], the Michaelis constant (Km) worked out at 85 ± 3 µM and the kcat was determined as 1.47 ± 0.04 S^−1. Moreover, the “catalytic activity of butelase-1 relative to VyPAL2 towards the substrate” value with butelase-1 [2] (intermolecular ligation) was “about 18 times”.
Turning to “Ac-KKLAVINGF (Ac-KKLAVINGF-NH2) [Peptide 7]”, in the series with VyPAL2 [1], the Michaelis constant (Km) was 155 ± 15 µM, the kcat was found to be 1.10 ± 0.03 S^−1 and the “catalytic activity/efficiency of VyPAL2 relative to butelase-1 towards the substrate” value is recorded as “about 3 times”. Moreover, in the series on butelase-1 [2], the Km was 175 ± 1 µM and the kcat was found to be 0.46 ± 0.04 S^−1.
For “GISTKSIPPISYRDLL (GISTKSIPPISYRDLL-NH2) [Peptide 21d]”, the “substrate preference among P1-Asp peptides” value with butelase-1 [3] is recorded as “slight preference”.
For the molecule GFGGIKA (GFGGIKA-NH2) [Peptide 5], in the series on VyPAL2 [1], the Km was found to be 424 ± 26 µM, the kcat is listed as 8.29 ± 0.48 S^−1 and the “catalytic activity/efficiency of VyPAL2 relative to butelase-1 towards the substrate” value is on record as 5 times. Further, in the series on butelase-1 [2], the Km came to 365 ± 3 µM and the kcat was determined as 1.55 ± 0.01 S^−1.
With “GISTKSIPPISYRDQL (GISTKSIPPISYRDQL-NH2) [Peptide 21h]”, the “substrate preference among P1-Asp peptides” value in the series on butelase-1 [3] is “slight preference”.
For the molecule “GISTKSIPPISYRDRL (GISTKSIPPISYRDRL-NH2) [Peptide 21f]”, in the series on butelase-1 [3], the “substrate preference among P1-Asp peptides” value was “least favored P1-Asp substrate”.
Take “GISTKSIPPISYRDSL (GISTKSIPPISYRDSL-NH2) [Peptide 21e]”: the Michaelis-Menten constant (Km) in the series with butelase-1 [3] (setting [10]) came out at 16.6 ± 2.3 µM; with VyPAL2 [4] (VyPAL2, cyclization, pH 4.5), 25.6 ± 2.6 µM; in the series with VyPAL2 [4] (VyPAL2, cyclization, pH 7.0), 42.3 ± 2.8 µM. In addition, the kcat with butelase-1 [3] (setting [10]) was found to be 0.11 ± 0.01 s⁻¹; in the series with VyPAL2 [4] (VyPAL2, cyclization, pH 4.5) it was 0.28 ± 0.023 s⁻¹; in the series with VyPAL2 [4] (VyPAL2, cyclization, pH 7.0), 0.021 ± 0.001 s⁻¹. Also, the “cyclization rate among P1-Asp peptides 21a-21i” value in the series with VyPAL2 [4] (25 nM VyPAL2, 5 μM peptide, pH 4.5, 25° C., 60 min) is “fastest cyclization rate”. Besides, the “optimum pH for cyclization” value in the series on VyPAL2 [4] (25 nM VyPAL2, pH range 4.0 to 7.4, 5 μM 21e or 50 μM 21j) is 4.0-4.5. In the series on VyPAL2 [4] (VyPAL2, cyclization, pH 7.4), the Vmax (in general, the rate approached at saturating substrate) was 0.004 µM/min.
“GISTKSIPPISYRDKL (GISTKSIPPISYRDKL-NH2) [Peptide 21g]”: the “substrate preference among P1-Asp peptides” value with butelase-1 [3] is given as “slight preference”.

B1: butelase-1 (asparaginyl ligase, active form, SEQ ID NO:2) (protein)
chain: VEGTRWAVLVAGSKGYVNYRHQADVCHAYQILKKGGLKDENIIVFMYDDIAYNESNPHPGVIINHPYGSDVYKGVPKDYVGEDINPPNFYAVLLANKSALTGTGSGKVLDSGPNDHVFIYYTDHGGAGVLGMPSKPYIAASDLNDVLKKKHASGTYKSIVFYVESCESGSMFDGLLPEDHNIYVMGASDTGESSWVTYCPLQHPSPPPEYDVCVGDLFSVAWLEDCDVHNLQTETFQQQYEVVKNKTIVALIEDGTHVVQYGDVGLSKQTLFVYMGTDPAN
For B1, in [5], the Km, intermolecular ligation of peptide 1 (varied) with nucleophile peptide 2 amounted to 85 µM; the kcat, intermolecular ligation of peptide 1 (varied) with nucleophile peptide 2 is 1.47 S^-1; the kcat/Km, intermolecular ligation of peptide 1 (varied) with nucleophile peptide 2 worked out at 17300 M^-1S^-1. In [6], the Km, intermolecular ligation of peptide 7 (varied) with nucleophile peptide 2 worked out at 175 µM; the kcat, intermolecular ligation of peptide 7 (varied) with nucleophile peptide 2 was 0.46 S^-1; the kcat/Km, intermolecular ligation of peptide 7 (varied) with nucleophile peptide 2 worked out at 2650 M^-1S^-1. In series [7], the Km, cyclization at pH 4.5 came to 16.6 µM; the kcat, cyclization at pH 4.5 was determined as 0.11 s⁻¹; the kcat/Km, cyclization at pH 4.5 is 7210 ± 489 M^-1s^-1. In addition, in [8], the Km, cyclization at pH 4.5 stood at 12.7 µM; the Km, cyclization at pH 7.4 was found to be 13.5 µM; the kcat, cyclization at pH 4.5 worked out at 0.6 s⁻¹; the kcat, cyclization at pH 7.4 came out at 9.4 s⁻¹. Besides, in series [8], the kcat/Km, cyclization at pH 4.5 turned out to be 47100 ± 3740 M^-1s^-1 and the kcat/Km, cyclization at pH 7.4 amounted to 714200 ± 5390 M^-1s^-1. Besides, in series [9], the Km, intermolecular ligation of GF-peptide 5 (varied) with acyl substrate peptide 4 was 365 µM; the kcat, intermolecular ligation of GF-peptide 5 (varied) with acyl substrate peptide 4 was determined as 1.55 S^-1; the kcat/Km, intermolecular ligation of GF-peptide 5 (varied) with acyl substrate peptide 4 was found to be 4260 M^-1S^-1.
